Assays:
Format in all cases: functional
HepG2 [1] = assay: Induction of apoptosis in human HepG2 cells assessed as fold increase in late apoptotic cells at 1 uM incubated for 24 hrs by Annexin V-FITC/PI staining based flow cytometric analysis
HCT-116 [2] = assay: Induction of cell cycle arrest in human HCT-116 cells assessed as accumulation of cells at G0/G1 phase at 1 uM incubated for 24 hrs by flow cytometric analysis (reference value: 90.2 %)
N2a [3] = assay: Induction of cell cycle arrest in mouse Neuro2a cells assessed as accumulation of cells at S phase at 1 uM incubated for 24 hrs by flow cytometric analysis (reference value: 30.5 %)
HepG2 [4] = assay: Induction of cell cycle arrest in human HepG2 cells assessed as accumulation of cells at G2/M phase at 1 uM incubated for 24 hrs by flow cytometric analysis (reference value: 27.8 %)
N2a [5] = assay: Induction of apoptosis in mouse Neuro2a cells assessed as fold increase in early apoptotic cells at 1 uM incubated for 24 hrs by Annexin V-FITC/PI staining based analysis
HCT-116 [6] = assay: Induction of cell cycle arrest in human HCT-116 cells assessed as accumulation of cells at S phase at 1 uM incubated for 24 hrs by flow cytometric analysis (reference value: 19.2 %)
HepG2 [7] = assay: Induction of apoptosis in human HepG2 cells assessed as viable cells at 1 uM incubated for 24 hrs by Annexin V-FITC/PI staining based flow cytometric analysis (reference value: 90.08 %); conditions: read-out: Activity
HepG2 [8] = assay: Induction of apoptosis in human HepG2 cells assessed as fold increase in early apoptotic cells at 1 uM incubated for 24 hrs by Annexin V-FITC/PI staining based flow cytometric analysis
HCT-116 [9] = assay: Induction of apoptosis in human HCT-116 cells assessed as late apoptotic cells at 1 uM incubated for 24 hrs by Annexin V-FITC/PI staining based flow cytometric analysis (reference value: 6.15 %)
HepG2 [10] = assay: Induction of apoptosis in human HepG2 cells assessed as early apoptotic cells at 0.1 uM incubated for 24 hrs by Annexin V-FITC/PI staining based flow cytometric analysis (reference value: 4.85 %)
N2a [11] = assay: Induction of apoptosis in mouse Neuro2a cells assessed as late apoptotic cells at 0.1 uM incubated for 24 hrs by Annexin V-FITC/PI staining based analysis (reference value: 0.81 %)
HepG2 [12] = assay: Induction of cell cycle arrest in human HepG2 cells assessed as accumulation of cells at G0/G1 phase at 1 uM incubated for 24 hrs by flow cytometric analysis (reference value: 66.4 %)
HCT-116 [13] = assay: Induction of cell cycle arrest in human HCT-116 cells assessed as accumulation of cells at G2/M phase at 1 uM incubated for 24 hrs by flow cytometric analysis (reference value: 30.6 %)
HCT-116 [14] = assay: Induction of cell cycle arrest in human HCT-116 cells assessed as accumulation of cells at G2/M phase at 0.1 uM incubated for 24 hrs by flow cytometric analysis (reference value: 30.6 %)
HepG2 [15] = assay: Induction of apoptosis in human HepG2 cells assessed as late apoptotic cells at 1 uM incubated for 24 hrs by Annexin V-FITC/PI staining based flow cytometric analysis (reference value: 2.05 %)
HCT-116 [16] = assay: Induction of cell cycle arrest in human HCT-116 cells assessed as accumulation of cells at S phase at 0.1 uM incubated for 24 hrs by flow cytometric analysis (reference value: 19.2 %)
N2a [17] = assay: Induction of apoptosis in mouse Neuro2a cells assessed as late apoptotic cells at 1 uM incubated for 24 hrs by Annexin V-FITC/PI staining based analysis (reference value: 0.81 %)
HCT-116 [18] = assay: Induction of apoptosis in human HCT-116 cells assessed as fold increase in early apoptotic cells at 1 uM incubated for 24 hrs by Annexin V-FITC/PI staining based analysis
N2a [19] = assay: Induction of apoptosis in mouse Neuro2a cells assessed as early apoptotic cells at 0.1 uM incubated for 24 hrs by Annexin V-FITC/PI staining based analysis (reference value: 3.17 %)
HCT-116 [20] = assay: Induction of cell cycle arrest in human HCT-116 cells assessed as accumulation of cells at G0/G1 phase at 0.1 uM incubated for 24 hrs by flow cytometric analysis (reference value: 90.2 %)
HCT-116 [21] = assay: Induction of apoptosis in human HCT-116 cells assessed as necrotic cells at 0.1 uM incubated for 24 hrs by Annexin V-FITC/PI staining based flow cytometric analysis (reference value: 1.45 %)
N2a [22] = assay: Induction of cell cycle arrest in mouse Neuro2a cells assessed as accumulation of cells at G0/G1 phase at 0.1 uM incubated for 24 hrs by flow cytometric analysis (reference value: 61.5 %)
HepG2 [23] = assay: Induction of apoptosis in human HepG2 cells assessed as late apoptotic cells at 0.1 uM incubated for 24 hrs by Annexin V-FITC/PI staining based flow cytometric analysis (reference value: 2.05 %)
HepG2 [24] = assay: Induction of cell cycle arrest in human HepG2 cells assessed as accumulation of cells at S phase at 1 uM incubated for 24 hrs by flow cytometric analysis (reference value: 27.8 %)
HCT-116 [25] = assay: Induction of apoptosis in human HCT-116 cells assessed as fold increase in late apoptotic cells at 1 uM incubated for 24 hrs by Annexin V-FITC/PI staining based analysis
HCT-116 [26] = assay: Induction of apoptosis in human HCT-116 cells assessed as viable cells at 0.1 uM incubated for 24 hrs by Annexin V-FITC/PI staining based flow cytometric analysis (reference value: 90.50 %); conditions: read-out: Activity
HepG2 [27] = assay: Induction of apoptosis in human HepG2 cells assessed as necrotic cells at 0.1 uM incubated for 24 hrs by Annexin V-FITC/PI staining based flow cytometric analysis (reference value: 3.02 %)
HepG2 [28] = assay: Induction of apoptosis in human HepG2 cells assessed as early apoptotic cells at 1 uM incubated for 24 hrs by Annexin V-FITC/PI staining based flow cytometric analysis (reference value: 4.85 %)
HCT-116 [29] = assay: Induction of apoptosis in human HCT-116 cells assessed as necrotic cells at 1 uM incubated for 24 hrs by Annexin V-FITC/PI staining based flow cytometric analysis (reference value: 1.45 %)
HCT-116 [30] = assay: Induction of apoptosis in human HCT-116 cells assessed as early apoptotic cells at 1 uM incubated for 24 hrs by Annexin V-FITC/PI staining based flow cytometric analysis (reference value: 1.90 %)
N2a [31] = assay: Induction of cell cycle arrest in mouse Neuro2a cells assessed as accumulation of cells at G2/M phase at 1 uM incubated for 24 hrs by flow cytometric analysis (reference value: 8.0 %)
N2a [32] = assay: Induction of cell cycle arrest in mouse Neuro2a cells assessed as accumulation of cells at G0/G1 phase at 1 uM incubated for 24 hrs by flow cytometric analysis (reference value: 61.5 %)
HepG2 [33] = assay: Induction of apoptosis in human HepG2 cells assessed as viable cells at 0.1 uM incubated for 24 hrs by Annexin V-FITC/PI staining based flow cytometric analysis (reference value: 90.08 %); conditions: read-out: Activity

SMILES	fold change (FC) (HepG2 [1])	Activity (HCT-116 [2])	Activity (N2a [3])	Activity (HepG2 [4])	fold change (FC) (N2a [5])	Activity (HCT-116 [6])	viability at 1 µM (HepG2 [7])	fold change (FC) (HepG2 [8])	Activity (HCT-116 [9])	Activity (HepG2 [10])	Activity (N2a [11])	Activity (HepG2 [12])	Activity (HCT-116 [13])	Activity (HCT-116 [14])	Activity (HepG2 [15])	Activity (HCT-116 [16])	Activity (N2a [17])	fold change (FC) (HCT-116 [18])	Activity (N2a [19])	Activity (HCT-116 [20])	other results
C=C1[C@@H](O)[C@@H]2O[C@]3(CC[C@H](/C=C/[C@@H](C)[C@@H]4CC(C)=C[C@@]5(O[C@H](C[C@@](C)(O)C(=O)O)CC[C@H]5O)O4)O3)CC[C@H]2O[C@@H]1[C@@H](O)C[C@H](C)[C@H]1O[C@@]2(CCCCO2)CC[C@H]1C [OKADAIC ACID]	11	55.5%	55%	13.3%	9.2	23.9%	50.9%	4.9	16.9%	13.5%	7.75%	49.5%	20.4%	44.6%	22.44%	23%	10.7%	1.9	10.91%	32.2%	Activity (HCT-116 [21]): 12.45%; Activity (N2a [22]): 30.4%; Activity (HepG2 [23]): 24.73%; Activity (HepG2 [24]): 37.2%; fold change (FC) (HCT-116 [25]): 2.8; viability at 0.1 µM (HCT-116 [26]): 79.2%; Activity (HepG2 [27]): 9.05%; Activity (HepG2 [28]): 23.72%; Activity (HCT-116 [29]): 19.75%; Activity (HCT-116 [30]): 3.65%; Activity (N2a [31]): 8.1%; Activity (N2a [32]): 36%; viability at 0.1 µM (HepG2 [33]): 52.7%
CC(=O)CCCCC[C@@H](O)[C@H](C)C[C@H](C)CC[C@@H]1O[C@H]1C[C@@H]1CC[C@@H](/C=C/C=C/C[C@H](O)C[C@H]2C=C[C@@H](C=C(C)C)O2)O1	10	6.8%	43.1%	13%	5.5	26%	49.8%	5.8	17.52%	30.92%	7.2%	52.3%	27.1%	31.9%	20.59%	18.7%	24.75%	2.7	15.67%	48.4%	Activity (HCT-116 [21]): 5.4%; Activity (N2a [22]): 51.5%; Activity (HepG2 [23]): 15.02%; Activity (HepG2 [24]): 34.7%; fold change (FC) (HCT-116 [25]): 2.9; viability at 0.1 µM (HCT-116 [26]): 75.2%; Activity (HepG2 [27]): 1.88%; Activity (HepG2 [28]): 27.87%; Activity (HCT-116 [29]): 18.45%; Activity (HCT-116 [30]): 5.15%; Activity (N2a [31]): 13.7%; Activity (N2a [32]): 43.2%; viability at 0.1 µM (HepG2 [33]): 52.2%

From ChEMBL document CHEMBL6127104, “Prorocentin-5: A Cytotoxic Polyketide from the Benthic Marine Dinoflagellate Prorocentrum lima” (J Nat Prod, 2024)
